Data taken from patent EP0598753B1, “MANGANESE COMPLEXES OF NITROGEN-CONTAINING MACROCYCLIC LIGANDS EFFECTIVE AS CATALYSTS FOR DISMUTATING SUPEROXIDE” (MONSANTO COMPANY, priority 1991, dated 1993).

Legend:
[1] = tested on: human aortic endothelial cells (HAE cells)
Excerpt: (§1) Human peripheral blood neutrophils were isolated from fresh venous blood of healthy volunteers. EDTA anticoagulated blood was separated using a single step density centrifugation (Polymorphprep; Nycomed Pharma, Oslo, Norway) followed by several washes in Hank's balanced salt solution supplemented with 0.5% BSA (Bovine Serum Albumin) (HBSSB) and the hypertonic lysis of erythrocytes. Neutrophils were counted via Coulter electronic particle counter and resuspended in HBSSB supplemented with 25% Endothelial Basal Medium (EBM), (Clonetics Corporation, San Diego, CA) at a concentration of 5 x 10^6 polymorphonuclear leukocytes (PMN)/ml.
(§2) The cytotoxic effects of stimulated neutrophils on endothelial cells were determined using a ^51Cr-release assay as previously described (Moldow, C.F., and Jacob, H.S. (1984) Methods Enzymol. 105, 378-385). Confluent monolayers of human aortic endothelial cells (HAE cells; Clonetics) grown in 96-well culture plates were prelabeled with 1 µCi/well ^51Cr (Na2 ^51Cr2O4, New England Nuclear, Boston, MA). The cells were incubated for 18 h at 37°C, then cytokine-activated with 10 Units/well human recombinant tumor necrosis factor-a (hrTNF-α; Monsanto Company, St. Louis, MO) for 4 h at 37°C. The cells were washed twice to remove unincorporated radioactivity with Hank's balanced salt solution supplemented with 0.5% BSA. To assess inhibition of PMN-mediated cytotoxicity, manganese(II) complexes at various doses (0-300 µM) were added to five replicate wells/dose of HAE cells immediately prior to the addition of PMN. Suspensions of PMN in HBSSB supplemented with 25% Endothelial Basal Medium were added to the wells at a neutrophil to endothelial cell ratio of 50:1. The PMN were allowed to adhere for 15 minutes at 37°C, primed with 125 Units/well hrTNF-α (Berkow, R.L., Wang, D., Larrick, J.W., Dodson, R.W., and Howard, T.H. (1987) J. Immunol. 139, 3783-3791; Varani, J.; Bendelow, M. J. Sealey, D. E.; Kunkel, S. L.; Gannon, D. E.; Ryan, U.S.; and Ward, P.A. (1987) Lab. Invest., 59, 292-295) for 10 minutes, and stimulated with human recombinant complement component C5a (Sigma Chemical, St. Louis, MO). […] After an additional incubation of 4 hours at 37°C, 200 µl of the 250 µl reaction volume (soluble fraction) was removed to a tube for counting. The cells were washed twice with 200 µl HBSSB (nonadherent fraction) and the washes pooled with the soluble fraction. The adherent fraction was collected by lysing the HAE cells with 200 µl 1N NaOH for 30 minutes and removing to separate tubes. Both fractions were analyzed by gamma scintillation spectrometry. The percentage cytotoxicity was calculated by the following formula: % Cytotoxicity =(cpm (soluble + nonadherent fractions))/(cpm (soluble + nonadherent + adherent fractions))x 100 [formula] Specific cytotoxicity reflects the difference between ^51Cr-release induced by stimulated PMN and unstimulated PMN. The IC50 values for the manganese(II) complexes for protection against neutrophil-mediated cytotoxicity were determined from a computer-driven logistic regression equation from a plot of % specific cytotoxicity versus the concentration of the manganese(II) complex.

[2] = Stopped-flow kinetic analysis of catalytic dismutation of superoxide; format: biochemical; settings: catalytic rate constant for dismutation of superoxide, pH 8.1 and 21°C
Excerpt: Stopped-flow kinetic analysis is an accurate and direct method for quantitatively monitoring the decay rates of superoxide in water.
For the attainment of consistent and accurate measurements all reagents were biologically clean and metal-free. To achieve this, all buffers (Calbiochem) were biological grade, metal-free buffers and were handled with utensils which had been washed first with 0.1 N HCl, followed by purified water, followed by a rinse in a 10^-4 M EDTA bath at pH 8, followed by a rinse with purified water and dried at 65°C for several hours. Dry DMSO solutions of potassium superoxide (Aldrich) were prepared under a dry, inert atmosphere of argon in a Vacuum Atmospheres dry glovebox using dried glassware. The DMSO solutions were prepared immediately before every stopped-flow experiment. A mortar and pestle were used to grind the yellow solid potassium superoxide (~100 mg). The powder was then ground with a few drops of DMSO and the slurry transferred to a flask containing an additional 25 ml of DMSO. The resultant slurry was stirred for 1/2 h and then filtered. […] These solutions were transferred to a glovebag under nitrogen in sealed vials prior to loading the syringe under nitrogen. It should be noted that the DMSO/superoxide solutions are extremely sensitive to water, heat, air, and extraneous metals. A fresh, pure solution has a very slight yellowish tint.
Water for buffer solutions was delivered from an in-house deionized water system to a Barnstead Nanopure Ultrapure Series 550 water system and then double distilled, first from alkaline potassium permanganate and then from a dilute EDTA solution. For example, a solution containing 1.0 g of potassium permanganate, 2 liters of water and additional sodium hydroxide necessary to bring the pH to 9.0 were added to a […] fitted with a solvent distillation head. This distillation will oxidize any trace of organic compounds in the water. The final distillation was carried out under nitrogen in a 2.5-liter flask containing 1500 ml of water from the first still and 1.0 x 10^-6M EDTA. This step will remove remaining trace metals from the ultrapure water. To prevent EDTA mist from volatilizing over the reflux arm to the still head, the 40-cm vertical arm was packed with glass beads and wrapped with insulation. This system produces deoxygenated water that can be measured to have a conductivity of less than 2.0 nanomhos/cm^2.
The stopped-flow spectrometer system was designed and manufactured by Kinetic Instruments Inc. (Ann Arbor, MI) and was interfaced to a MAC IICX personal computer. The software for the stopped-flow analysis was provided by Kinetics Instrument Inc. and was written in QuickBasic with MacAdios drivers. Typical injector volumes (0.10 ml of buffer and 0.006 ml of DMSO) were calibrated so that a large excess of water over the DMSO solution were mixed together. […] Aqueous solutions to be mixed with the DMSO solution of superoxide were prepared using 80 mM concentrations of the Hepes buffer, pH 8.1 (free acid + Na form). One of the reservoir syringes was filled with 5 ml of the DMSO solution while the other was filled with 5 ml of the aqueous buffer solution. The entire injection block, mixer, and spectrometer cell were immersed in a thermostatted circulating water bath with a temperature of 21.0 ± 0.5°C.
Prior to initiating data collection for a superoxide decay, a baseline average was obtained by injecting several shots of the buffer and DMSO solutions into the mixing chamber. These shots were averaged and stored as the baseline.

[3] = tested on: colonic myeloperoxidase activity; experiment: Mouse acetic acid-induced colitis model (colonic myeloperoxidase); format: in vivo; settings: 30 mg/kg dose, intracolonic, 30 minutes before acetic acid, tissue after 24 hours
Experimental: Mouse colitis model. […] Mice were lightly anesthetized. A solution of 3% (v/v) aqueous acetic acid was instilled intracolonically via a flexible polyethylene tube. After 24 hours, the animals were killed and colonic tissue samples were obtained. Tissue samples were assessed biochemically for the neutrophil marker enzyme, myeloperoxidase (MPO). The colonic tissue samples were minced, homogenized in detergent, and sonicated. After centrifugation, enzyme activities were assayed spectrophotometrically by determining the decomposition of peroxide using o-dianisidine as the hydrogen donor. Data was obtained as the absorbance (460 nm) at 20 minutes. Test agents were given intracolonically at a dose of 30 mg/kg body weight 30 minutes before acetic acid instillation as a sonicated suspension in 0.5% aqueous methyl cellulose. Vehicle was given to appropriate acetic acid control animals. Normal tissue was obtained from control animals which received only vehicle. Colonic myeloperoxidase activities were determined as units/g wet weight of tissue. Reduction of colonic myeloperoxidase activity by test agents in acetic acid-treated mice is expressed as % inhibition (Table 2). Colonic myeloperoxidase activity correlated with the degree of tissue inflammation as assessed by visual and histological analysis.

[4] = tested on: human aortic endothelial cells (HAE cells); experiment: Neutrophil-mediated cytotoxicity assay (51Cr-release); settings: 50% inhibition of specific cytotoxicity; human neutrophil-mediated killing of human aortic endothelial cells
Excerpt: as §1, §2

[5] = molecular target: T1, nitric oxide synthase (NOS) (Mus musculus, UniProt P29477); experiment: NOS activity measured by citrulline production; format: biochemical
T1 construct: crude NOS (prepared from endotoxin-treated RAW 264.7 cells); endogenous in cells; host or cells: endotoxin-treated RAW 264.7 cells (crude enzyme preparation)
T1 sequence (P29477 1-1144): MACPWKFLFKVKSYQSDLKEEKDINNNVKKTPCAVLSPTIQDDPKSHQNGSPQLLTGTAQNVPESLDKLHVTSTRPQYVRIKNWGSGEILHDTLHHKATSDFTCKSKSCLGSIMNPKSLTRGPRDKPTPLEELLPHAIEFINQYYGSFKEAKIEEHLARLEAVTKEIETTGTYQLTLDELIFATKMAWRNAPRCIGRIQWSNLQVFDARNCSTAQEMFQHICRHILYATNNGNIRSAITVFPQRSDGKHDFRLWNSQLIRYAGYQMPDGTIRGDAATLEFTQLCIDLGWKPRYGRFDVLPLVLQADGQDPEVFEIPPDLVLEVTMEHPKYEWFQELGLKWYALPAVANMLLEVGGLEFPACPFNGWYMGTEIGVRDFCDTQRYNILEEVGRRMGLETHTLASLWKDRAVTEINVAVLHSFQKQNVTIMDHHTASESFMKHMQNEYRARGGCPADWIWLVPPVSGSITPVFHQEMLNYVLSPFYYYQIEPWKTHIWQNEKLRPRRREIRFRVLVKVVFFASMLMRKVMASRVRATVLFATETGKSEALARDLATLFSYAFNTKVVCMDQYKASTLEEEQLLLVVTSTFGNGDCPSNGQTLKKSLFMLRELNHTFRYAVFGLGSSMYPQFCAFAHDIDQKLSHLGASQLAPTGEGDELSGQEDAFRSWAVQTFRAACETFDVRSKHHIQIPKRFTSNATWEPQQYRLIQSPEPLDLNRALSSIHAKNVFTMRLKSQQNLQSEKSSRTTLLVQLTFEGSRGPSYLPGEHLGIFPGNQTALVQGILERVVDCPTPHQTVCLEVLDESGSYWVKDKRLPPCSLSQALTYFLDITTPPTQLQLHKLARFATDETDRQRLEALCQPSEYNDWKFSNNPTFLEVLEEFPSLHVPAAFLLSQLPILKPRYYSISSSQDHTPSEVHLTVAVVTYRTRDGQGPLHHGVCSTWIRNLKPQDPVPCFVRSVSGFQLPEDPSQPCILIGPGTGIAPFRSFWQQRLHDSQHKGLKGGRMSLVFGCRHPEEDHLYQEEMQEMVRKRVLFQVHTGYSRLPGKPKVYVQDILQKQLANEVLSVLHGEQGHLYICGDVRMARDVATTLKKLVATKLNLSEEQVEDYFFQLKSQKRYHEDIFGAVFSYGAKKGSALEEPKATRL

[6] = tested on: rat aortic rings; experiment: Rat aortic ring assay
Experimental: The aortic rings were prepared using a Furchgott procedure (described in Furchgott, R.F., "Role of Endothelium in Response of Vascular Smooth Muscle", Circ. Res. 53: 557-573, 1983) with changes in tension recorded. In all preparations, initial tension (1.5 grams) was produced with 30 mM KCl.

[7] = tested on: conscious rats; experiment: Rat hemodynamic model (mean blood pressure, conscious rats); format: in vivo, male Sprague-Dawley rats
Experimental: Catheters were inserted into the femoral vein, femoral artery and bladder of male Sprague-Dawley rats (250-325 grams total body weight) anesthetized with ether. The rats were then placed in individual restraining cages and allowed to regain consciousness. Blood pressure was measured by a standard pressure transducer and physiograph. Increasing doses of the manganese(II) complex of Example 1 (prepared in an aqueous solution) were given as single bolus injections. The results of the tests can be found in Figure 1. The blood pressure values represent the mean arterial blood pressure from the mean values of 3 rats. […] Thus, the potentiation by the complex of Example 1 of the vasorelaxant effects of NO is consistent with the proposed mechanism of action as an SOD mimic.

[8] = tested on: rat lung fibroblast cells; experiment: Nitric oxide: rat lung fibroblast cGMP reporter assay; format: cell-based; settings: for cGMP: mean
Experimental: The assay is described in Ishii, I., Sheng, H., Warner, T.D., Förstermann, V. and Murad, F., Am. J. Physiol., 261 (Heart Circ. Physiol. 30); H598-H603, 1991 modified in that the nitric oxide synthase (NOS) is added directly to the cells. Rat lung fibroblast cells were grown to confluence on a 48-well tissue culture plate containing Earle's salts medium. The medium is removed and the cells washed twice with minimal essential medium buffered with Earle's salts. A nitric oxide (NO) generating system consisting of enzyme (NOS), nicotinamide adenine dinucleotide phosphate (NADPH), arginine and required cofactors, such as tetrahydrobiopterin and flavin adenine dinucleotide (FAD) is subsequently added to each well. In cases where the complex of Example 1 was added, addition occurred with the NO generating system. After five minutes of incubation, each reaction is terminated, cellular cGMP extracted and measured by radioimmunoassay.
The capacity of the rat lung fibroblast cells to respond to NO was confirmed by adding sodium nitroprusside (SNP), a compound which spontaneously degrades to NO and results in increased cGMP levels. Next, crude NOS (prepared from endotoxin-treated RAW 264.7 cells) was added to the rat lung fibroblast cells to determine their response to enzymatically generated NO. A dose-dependent increase in cGMP with increasing amounts of enzyme was obtained. Superoxide dismutase (SOD) addition augmented cellular cGMP levels.

Row | Molecule | protection against human neutrophil-mediated cytotoxicity, in words [1] | kCAT [2] [M⁻¹ s⁻¹] | % Inhibition of Colonic Myeloperoxidase Activity [3] [%] | IC50 [4] [µM] | further results
1 | CC1CNCCNCCNCCNCCN1.[Cl-].[Cl-].[Mn+2] (centres unmarked) [Example 2, [Manganese(II)dichloro(2-Methyl-1,4,7,10,13-pentaazacyclopentadecane)]] | protective against human neutrophil-mediated cytotoxicity | 2.67e+07 | 47 | – | –
2 | CC(C)CC1CNCCNCCNCCNCCN1.[Cl-].[Cl-].[Mn+2] (centres unmarked) [Example 5, [Manganese(II)dichloro(2-(2-Methylpropyl)-1,4,7,10,13-pentaazacyclopentadecane)]] | protective against human neutrophil-mediated cytotoxicity | – | 70 | – | –
3 | C1CNCCNCCNCCNCCN1.F[P-](F)(F)(F)(F)F.[Cl][Mn+] [Example 27, [Manganese(II)chloro(1,4,7,10,13-Pentaazacyclopentadecane)]Hexafluorophosphate] | protective against human neutrophil-mediated cytotoxicity | 2.4e+07 | – | 26 | –
4 | C1CNCCNCCNCCNCCN1.[Cl-].[Cl-].[Mn+2] [Example 1, [Manganese(II)dichloro(1,4,7,10,13-Pentaazacyclopentadecane)]] | protective against human neutrophil-mediated cytotoxicity | – | 69 | 25 | NOS activity as measured by citrulline production [5]: does not increase NOS activity; effect on the relaxation response to acetylcholine, in words ([6]; complex 0.5 and 5.0 micromolar, acetylcholine 0.1 and 1.0 micromolar): additive effect; effect on the relaxation response to sodium nitroprusside, in words ([6]; complex 0.5 and 5.0 micromolar, sodium nitroprusside 0.001 to 10 micromolar): additive effect; maximum relaxation ([6]; endothelium and dose-dependent from 0.05 to 300 micromolar, 30 mM KCl): 45%; augmentation of cellular cGMP levels ([6]; rat aortic rings, 5 micromolar for 1 min.): 2.5 fold; effect on mean blood pressure, in words ([7]; increasing doses as single bolus injections, aqueous solution, data in Figure 1): blood pressure drop; duration of the blood pressure drop ([7]; single bolus injections): 3 to 5 min; cGMP ([8]; NOS + complex 0.0001mM): 19.3 fmol/well/10; cGMP ([8]; NOS + complex 0.001mM): 21.7 fmol/well/10; cGMP ([8]; NOS + complex 0.01mM): 43.7 fmol/well/10; cGMP ([8]; NOS + complex 0.10mM): 54.7 fmol/well/10; cGMP ([8]; NOS + complex 1.0mM): 60.3 fmol/well/10; cGMP ([8]; complex alone, 1mM, no NOS): 11.7 fmol/well/10; basal levels of cGMP, in words ([8]; complex alone, 1 millimolar): not increased; cGMP levels, in words ([8]; with NO generating system, 1 micromolar to 1 millimolar): dose-dependent increase in cGMP levels
5 | [Manganese(II)dichloro((S)-2-Methyl-1,4,7,10,13-pentaazacyclopentadecane)] [Example 3] | protective against human neutrophil-mediated cytotoxicity | 2.39e+07 | 42 | 37 | –
6 | [Manganese(II)diacetate(1,4,7,10,13-Pentaazacyclopentadecane)] [Example 8] | protective against human neutrophil-mediated cytotoxicity | – | 32 | – | –
7 | C1CCC(CC2CNCCNCCNCCNCCN2)CC1.[Cl-].[Cl-].[Mn+2] (centres unmarked) [Example 7, [Manganese(II)dichloro(2-Cyclohexylmethyl-1,4,7,10,13-pentaazacyclopentadecane)]] | protective against human neutrophil-mediated cytotoxicity | – | 77 | 22 | –
